# Tests used:
# Type in all cases: cell-based
# SNB-75 = assay: SRB growth assay, 6 days exposure, CNS cancer; details: SNB-75, 6 days
# Description: (§1) Arsenic trioxide (1 mg/ml, 10 mg/ampoule, manufactured by Taylor Pharmaceuticals, Decatur, Ill.) was tested at five concentrations each at 10-fold dilutions, i.e., 10^−5, 10^−6, 10^−7, 10^−8 and 10^−9 μg/ml.
# (§2) The in vitro tests were performed by incubating the test cells in the presence of the indicated concentration of arsenic trioxide under standard culture conditions for a designated period of time, which is followed by a sulforhodamine B (SRB) protein assay to estimate cell viability or growth. The cell lines are organized into subpanels according to the origin of the cell lines, e.g., leukemia, breast cancer, etc. A description of the cell lines and method of testing is described in Monk et al. (1997, Anticancer Drug Des. 12:533-41) and Weinstein et al., (1997, Science 275:343-9), which are incorporated herein in their entirety.
# (§3) The measurement of an effect is expressed in Percentage Growth (PG). The measured effect of the compound on a cell line is calculated according to one or the other of the following two expressions: If (Mean ODtest−Mean ODzero)≧0. then PG=100×(Mean ODtest−Mean ODzero)/(Mean ODctrl−Mean ODzero) If (Mean ODtest−Mean ODzero)<0. then PG=100×(Mean ODtest−Mean ODzero)/(Mean ODzero where: • Mean ODzero=the average of optical density measurements of SRB-derived color just before exposure of cells to the test compounds; • Mean ODtest=the average of optical density measurements of SRB-derived color after exposure of cells to the test compound for a designated period of time; and • Mean ODctrl=the average of optical density measurements of SRB-derived color after with no exposure of cells to the test compound for a designated period of time
# (§4) The first two columns describe the subpanel (e.g., leukemia) and cell line (e.g., CCRF-CEM) involved. The next two columns list the Mean ODzero and Mean ODctrl; the next five columns list the Mean ODtest for each of five different concentrations. Each concentration is expressed as the log10 (molar or μg/ml). The next five columns list the calculated PGs for each concentration. The response parameters GI50, TGI and LC50 are interpolated values representing the concentrations at which the PG is +50, 0, and −50, respectively. Sometimes these response parameters cannot be obtained by interpolation. If, for instance, all of the PGs in a given row exceed +50, then none of the three parameters can be obtained by interpolation. In such a case, the value given for each response parameter is the highest concentration tested and is preceded by a “>” sign. This practice is extended similarly to the other possible situations where a response parameter cannot be obtained by interpolation.
# (§5) In the first set, the cells from 56 different cancer cell lines were exposed to five concentrations of arsenic trioxide continuously for two days prior to performing the SRB assay. In the second set, the cells from 50 different cell lines (a subset of the first 56 cell lines, plus the renal cancer cell line 786-0) were exposed continuously for six days prior to the SRB assay.
# SF-539 = assay: SRB growth assay, 6 days exposure, CNS cancer; details: SF-539, 6 days
# Description: as §1, §2, §3, §4, §5
# U251 = assay: SRB growth assay, 6 days exposure, CNS cancer; details: U251, 6 days
# Description: as §1, §2, §3, §4, §5
# SF-268 = assay: SRB growth assay, 6 days exposure, CNS cancer; details: SF-268, 6 days
# Description: as §1, §2, §3, §4, §5
# SF-295 = assay: SRB growth assay, 6 days exposure, CNS cancer; details: SF-295, 6 days
# Description: as §1, §2, §3, §4, §5
# KM12 = assay: SRB growth assay, 2 days exposure, colon cancer
# Description: as §1, §2, §3, §4, §5
# CCRF-CEM = assay: SRB growth assay, 6 days exposure, leukemia
# Description: as §1, §2, §3, §4, §5
# DU-145 = assay: SRB growth assay, 6 days exposure, prostate cancer; details: DU-145, 6 days
# Description: as §1, §2, §3, §4, §5
# [1] = read-out: LC50 (the source's name)
substance,measurement,setting,value
arsenic trioxide,TGI,SNB-75,3.80E−06
same,Mean Optical Densities,SNB-75; Log 10 Concentration −4.9,0.028
same,Percent Growth,SNB-75; Log 10 Concentration −4.9,−79%
same,Mean Optical Densities,SNB-75; Log 10 Concentration −5.9,0.815
same,Percent Growth,SNB-75; Log 10 Concentration −5.9,73%
same,Mean Optical Densities,SNB-75; Log 10 Concentration −6.9,1.024
same,Percent Growth,SNB-75; Log 10 Concentration −6.9,96%
same,Mean Optical Densities,SNB-75; Log 10 Concentration −7.9,1.033
same,Percent Growth,SNB-75; Log 10 Concentration −7.9,97%
same,Mean Optical Densities,SNB-75; Log 10 Concentration −8.9,1.143
same,Percent Growth,SNB-75; Log 10 Concentration −8.9,108%
same,TGI,SF-539,3.29E−06
same,Mean Optical Densities,SF-539; Log 10 Concentration −4.9,0.017
same,Percent Growth,SF-539; Log 10 Concentration −4.9,−59%
same,Mean Optical Densities,SF-539; Log 10 Concentration −5.9,0.691
same,Percent Growth,SF-539; Log 10 Concentration −5.9,42%
same,Mean Optical Densities,SF-539; Log 10 Concentration −6.9,1.545
same,Percent Growth,SF-539; Log 10 Concentration −6.9,97%
same,Mean Optical Densities,SF-539; Log 10 Concentration −7.9,1.403
same,Percent Growth,SF-539; Log 10 Concentration −7.9,87%
same,Mean Optical Densities,SF-539; Log 10 Concentration −8.9,1.727
same,Percent Growth,SF-539; Log 10 Concentration −8.9,108%
same,TGI,U251,8.51E−07
same,Mean Optical Densities,U251; Log 10 Concentration −4.9,−0.012
same,Percent Growth,U251; Log 10 Concentration −4.9,−100%
same,Mean Optical Densities,U251; Log 10 Concentration −5.9,0.088
same,Percent Growth,U251; Log 10 Concentration −5.9,−17%
same,Mean Optical Densities,U251; Log 10 Concentration −6.9,1.908
same,Percent Growth,U251; Log 10 Concentration −6.9,81%
same,Mean Optical Densities,U251; Log 10 Concentration −7.9,2.018
same,Percent Growth,U251; Log 10 Concentration −7.9,86%
same,Mean Optical Densities,U251; Log 10 Concentration −8.9,2.129
same,Percent Growth,U251; Log 10 Concentration −8.9,91%
same,TGI,SF-268,2.57E−06
same,Mean Optical Densities,SF-268; Log 10 Concentration −4.9,−0.004
same,Percent Growth,SF-268; Log 10 Concentration −4.9,−100%
same,Mean Optical Densities,SF-268; Log 10 Concentration −5.9,0.387
same,Percent Growth,SF-268; Log 10 Concentration −5.9,45%
same,Mean Optical Densities,SF-268; Log 10 Concentration −6.9,0.356
same,Percent Growth,SF-268; Log 10 Concentration −6.9,41%
same,Mean Optical Densities,SF-268; Log 10 Concentration −7.9,0.381
same,Percent Growth,SF-268; Log 10 Concentration −7.9,44%
same,Mean Optical Densities,SF-268; Log 10 Concentration −8.9,0.990
same,Percent Growth,SF-268; Log 10 Concentration −8.9,126%
same,TGI,SF-295,3.25E−06
same,Mean Optical Densities,SF-295; Log 10 Concentration −4.9,0.010
same,Percent Growth,SF-295; Log 10 Concentration −4.9,−69%
same,Mean Optical Densities,SF-295; Log 10 Concentration −5.9,0.659
same,Percent Growth,SF-295; Log 10 Concentration −5.9,49%
same,Mean Optical Densities,SF-295; Log 10 Concentration −6.9,1.244
same,Percent Growth,SF-295; Log 10 Concentration −6.9,94%
same,Mean Optical Densities,SF-295; Log 10 Concentration −7.9,1.279
same,Percent Growth,SF-295; Log 10 Concentration −7.9,97%
same,Mean Optical Densities,SF-295; Log 10 Concentration −8.9,1.284
same,Percent Growth,SF-295; Log 10 Concentration −8.9,97%
same,TGI,KM12,>0.0126 ng/mL
same,Percent Growth,KM12; log10 conc −4.9,68%
same,Percent Growth,KM12; log10 conc −5.9,99%
same,Percent Growth,KM12; log10 conc −6.9,106%
same,Percent Growth,KM12; log10 conc −7.9,98%
same,Percent Growth,KM12; log10 conc −8.9,101%
same,TGI,CCRF-CEM,>1.26E−05
same,Mean Optical Densities,CCRF-CEM; Log 10 Concentration −4.9,0.048
same,Percent Growth,CCRF-CEM; Log 10 Concentration −4.9,0%
same,Mean Optical Densities,CCRF-CEM; Log 10 Concentration −5.9,0.320
same,Percent Growth,CCRF-CEM; Log 10 Concentration −5.9,8%
same,Mean Optical Densities,CCRF-CEM; Log 10 Concentration −6.9,3.051
same,Percent Growth,CCRF-CEM; Log 10 Concentration −6.9,87%
same,Mean Optical Densities,CCRF-CEM; Log 10 Concentration −7.9,3.592
same,Percent Growth,CCRF-CEM; Log 10 Concentration −7.9,102%
same,Mean Optical Densities,CCRF-CEM; Log 10 Concentration −8.9,3.601
same,Percent Growth,CCRF-CEM; Log 10 Concentration −8.9,103%
same,CC50,CCRF-CEM; [1],> 12.6 µM
same,TGI,DU-145,6.32E−06
same,Mean Optical Densities,DU-145; Log 10 Concentration −4.9,0.055
same,Percent Growth,DU-145; Log 10 Concentration −4.9,−43%
same,Mean Optical Densities,DU-145; Log 10 Concentration −5.9,2.153
same,Percent Growth,DU-145; Log 10 Concentration −5.9,100%
same,Mean Optical Densities,DU-145; Log 10 Concentration −6.9,1.935
same,Percent Growth,DU-145; Log 10 Concentration −6.9,89%
same,Mean Optical Densities,DU-145; Log 10 Concentration −7.9,1.954
same,Percent Growth,DU-145; Log 10 Concentration −7.9,90%
same,Mean Optical Densities,DU-145; Log 10 Concentration −8.9,2.147
same,Percent Growth,DU-145; Log 10 Concentration −8.9,99%
same,CC50,DU-145; [1],> 12.6 µM
